Laboratory results reported in patent US20130137760A1, “GAMBOGIC AMINE, A SELECTIVE TRKA AGONIST WITH NEUROPROTECTIVE ACTIVITY” (EMORY UNIVERSITY, priority 2007, published 2013).

Tests used:
[1] = test system: hippocampus; assay: Kainic acid-elicited neuronal cell death in mouse brain (TUNEL, hippocampus); assay type: in vivo, C57BL/6 mice; details: KA alone, quantitative analysis of apoptosis
Excerpt: Kainic acid (KA) is a potent agonist for the AMPA receptor. Peripheral injections of KA result in recurrent seizures and the subsequent degeneration of select populations of neurons in the hippocampus (Nadler et al., 1980; Schauwecker and Steward, 1997; Sperk et al., 1983). It has been shown that the activation of caspase-3 is a necessary component of KA-induced cell death (Faherty et al., 1999). To explore whether test compounds can block the neurotoxicity initiated by KA, the compounds can be subcutaneously injected (for example, at a concentration of 2 mg/kg) into C57BL/6 mice, followed by 25 mg/kg KA. In 5 days, the mice can be perfused and the brains cut to a thickness of 5 μm and mounted on slides.
Kainic acid (KA) is a potent agonist for the AMPA receptor. Peripheral injections of KA result in recurrent seizures and the subsequent degeneration of select populations of neurons in the hippocampus (Nadler et al., 1980; Schauwecker and Steward, 1997; Sperk et al., 1983). It has been shown that the activation of caspase-3 is a necessary component of KA-induced cell death (Faherty et al., 1999). To explore whether gambogic amines can block the neurotoxicity initiated by KA, one can subcutaneously inject 2 mg/kg of a gambogic amine into C57BL/6 mice, followed by 25 mg/kg KA. In 5 days, the mice can be perfused and the brains were cut to a thickness of 5 μm and mounted on slides. TUNEL staining can reveal whether KA provokes enormous apoptosis in the hippocampus, and whether this effect is substantially diminished by the gambogic amine.
Male C57BL/6 mice aged of 60 days can be injected subcutaneously (s.c.) with a single dose of either 30% ethanol in saline or KA (25 mg/kg) (Sigma, Mo.) or the gambogic amine (2 mg/kg) followed by KA. Animals can be continually monitored for 2 h for the onset of seizure activity. At 5 days following treatment, animals can be anesthetized and perfused with 4% paraformaldehyde in 0.1 M phosphate buffered saline. Brains can be removed, post-fixed overnight and processed for paraffin embedding. […]

[2] = test system: T17 cells (TrkA stably transfected SN56 cells); assay: Cell-based apoptotic assay: protection of TrkA-expressing T17 cells from staurosporine-initiated apoptosis, MR(DEVD)2 caspase-3 dye; set-up: species or system murine; details: for apoptosis inhibitory activity in T17 cells: 0.5 μM pre-incubation, then 1 μM STS for 9 h, compared with NGF
Excerpt: In order to identify small molecules that mimic NGF and activate TrkA, we developed a cell-based apoptotic assay using a cell permeable fluorescent dye MR([…])2, which turns red upon caspase-3 cleavage in apoptotic cells. We utilized a murine cell line T17, which was derived from basal forebrain SN56 cells. T17 cells are TrkA stably transfected SN56 cells. The candidates selectively protecting T17 but not SN56 cells from the first round screen can then be subjected to neurite outgrowth assay for the secondary screen. The positive compounds can be analyzed for TrkA tyrosine phosphorylation, Akt and MAP kinases signaling cascade activation.
T17 cells can be cultured in 96-well plates and preincubated with 10 μM compounds for 30 min, followed by 1 μM staurosporine (STS) treatment for 9 h. MR(DEVD)2 can be introduced to the cells 1 h before examination under fluorescent microscope. The apoptotic cells are red, while live cells have no signal. […] Using the caspase-3-activated fluorescent dye as a visual assay, one can screen the gambogic amine compounds.
To compare the apoptosis inhibitory activity of various compounds, one can pre-incubate gambogic amines derivatives (0.5 μM) with T17 and SN56 cells, followed by 1 μM STS for 9 h. Quantitative analysis of the apoptosis inhibitory activities can determine whether the compounds protect SN56 cells from apoptosis.
T17 cells can be seeded in a 96-well plate at 10,000 cells/well in 100 μl complete medium. Cells can be incubated overnight, followed by 30 min pretreatment with 10 μM compounds in DMSO (10 mM stock concentration from The Spectrum Collection library). The cells can then be treated with 1 μM Staurosporine for 9 h. One h before the termination of the experiment, 10 μM MR(DEVD)2, a cell permeable caspase-3-activated fluorescent dye can be introduced. Cells can be fixed with 4% paraformaldehyde for 15 min. Cells can then be washed with PBS and incubated with 1 μg/ml of Hoechst 33342 for 10 min. Cover slides can then be washed with PBS, mounted, and examined using a fluorescence microscope.

[3] = Kasibhatla et al., 2005; cited from earlier work
[4] = test system: Akt; assay: Akt activation in primary hippocampal neurons; assay type: cell-based
Method: (§1) NGF triggers PI 3-kinase/Akt and Ras/MAP Kinase signaling cascades activation through the TrkA receptor. […] The cell lysates can be analyzed by immunoblotting with anti-phospho-Erk1/2 and phospho-Akt-473 antibodies, respectively. […] One can also extend the assays into primary hippocampal neurons. […] Time course assay with hippocampal neurons can show whether gambogic amines (0.5 μM) elicit Akt phosphorylation after 5 min treatment, and whether Akt activation increases after 10 min and is sustained for 60 min. One can also determine whether the gambogic amines provoke Akt activation in a dose-dependent manner.

[5] = test system: Erk1/2 and Akt; assay: Erk1/2 and Akt phosphorylation in T17 cells, immunoblot; assay type: cell-based, murine; details: 30 min
Method: as §1

[6] = test system: PC12 cells; assay: Neurite outgrowth in PC12 cells; assay type: cell-based; details: after 5 days of treatment
Method: One of most prominent neurotrophic effects of NGF is to trigger neurite outgrowth in neuronal cells and incur differentiation. […] The cell medium containing the compounds can be replenished every other day. […] The gambogic amine compounds can similarly be evaluated for their ability to induce evident neurite outgrowth in PC12 cells. Dose-dependent assays can reveal whether 10-50 nM of gambogic amines are sufficient to provoke substantial neurite sprouting in PC12 cells.

[7] = test system: TrkA; assay: TrkA tyrosine phosphorylation in primary hippocampal neurons, anti-phospho-TrkA Y490 immunoblot; assay type: cell-based; details: 30 min
Excerpt: NGF binds to receptor TrkA and elicits its dimerization and autophosphorylation on tyrosine residues. Numerous tyrosine residues on TrkA are phosphorylated upon NGF stimulation. For example, Y490 phosphorylation is required for Shc association and activation of MAP kinase signaling cascade. Y751 phosphorylation is essential for PI 3-kinase docking and activation. To evaluate whether gambogic amine compounds can also trigger TrkA tyrosine phosphorylation, one can treat primary hippocampal neurons with various drugs at 0.5 μM for 30 min. The cell lysates can be analyzed by immunoblotting with anti-phospho-TrkA Y490 antibody. […] To explore whether gambogic amines can trigger TrkA dimerization, one can cotransfect GFP-TrkA and HA-TrkA into HEK293 cells, and treat the cells with 0.5 μM gambogic amine for 30 min. Communoprecipitation assays can be used to determine whether gambogic amines provoke TrkA dimerization even more strongly than NGF. One can also evaluate whether the gambogic amines also elicit tyrosine phosphorylation in TrkA but not in TrkB or C receptors.

In the case of `C=C(C)[C@H]1CN[C@H](C(=O)O)[C@H]1CC(=O)O` [KA, Kainic acid], the “cell death in the CA1 region of the hippocampus” value ([1]; CA1 region) is reported as 47% and the “cell death in the CA3 region of the hippocampus” value ([1]; CA3 region) is reported as 57%.
With `CC(C)=CCCC1(C)C=Cc2c(O)c3c(c(CC=C(C)C)c2O1)OC12C(=CC4CC1C(C)(C)OC2(C/C=C(/C)C(=O)O)C4O)C3=O` (centres unmarked) [dihydrogambogic acid] the “apoptosis inhibitory activity in T17 cells” value (from here on “apoptosis inhibitory activity”) [2] was “strongly suppress apoptosis in T17 cells with protective activities even stronger than NGF”.
For `COC(=O)/C(C)=C\CC12OC(C)(C)C3CC(C=C4C(=O)c5c(OC)c6c(c(CC=C(C)C)c5OC431)OC(C)(CCC=C(C)C)C=C6)C2=O` (centres unmarked) [dimethyl gambogate], the “apoptosis inhibitory activity” value [2] was “strongly suppress apoptosis in T17 cells with protective activities even stronger than NGF”.
For `CC(C)=CCC[C@]1(C)C=Cc2c(O)c3c(c(CC=C(C)C)c2O1)O[C@]12C(=C[C@@H]4C[C@H]1C(C)(C)O[C@@]2(C/C=C(/C)C(=O)O)C4=O)C3=O` [gambogic acid, Gambogic Acid], the “apoptosis inhibitory activity” value [2] is listed as “strongly suppress apoptosis in T17 cells with protective activities even stronger than NGF” and the “Kd of association with Transferrin” value [3] is listed as 2200 nM.
For “NGF: nerve growth factor, binds mainly TrkA; positive control, from Roche”, the Akt activation [4] was “evidently activates Akt”, the “Erk1/2 and Akt phosphorylation” value [5] was “stimulates demonstrable Erk1/2 and Akt phosphorylation” and the “red (apoptotic) cell numbers compared to DMSO control” value ([2]; positive control, 1 μM staurosporine for 9 h, MR(DEVD)2 dye) was “substantially decreases the red cell numbers”. The “neurite sprouting in PC12 cells” value [6] was “pronounced neurite sprouting” and the “TrkA phosphorylation (Y490)” value [7] was “induces potent TrkA phosphorylation”.
